Values of other authors as cited in US20160250192A1, “PRODUCTION METHOD OF PHARMACEUTICAL COMPOSITION CONTAINING CANDESARTAN CILEXETIL” (Sawai Pharmaceutical Co., Ltd., priority 2013, published 2016).

CCOc1nc2cccc(C(=O)OC(C)OC(=O)OC3CCCCC3)c2n1Cc1ccc(-c2ccccc2-c2nnn[nH]2)cc1 (racemic) [Candesartan cilexetil, (RS)-1-[(cyclohexyloxy)carbonyloxy]ethyl 2-ethoxy-1-{[2′-(1H-tetrazole-5-yl)-biphenyl-4-yl]methyl}-1H-benzimidazole-7-carboxylate]
solubility in water: poorly soluble
